System: 276233-004-R-J1-PDC KRAS spheroids with HUVEC/MSC, viability
Experiment: Anticancer human tumor 276233-004-R-J1-PDC patient-derived colon adenocarcinoma cell line growth inhibition [KRAS2]
Conditions: compound 0.000316 µM; stronger effect = lower value
Source text: Multicellular complex tumor spheroid response to RAS pathway inhibitors in combination with a targeted agents in patient-derived cell lines with oncogenic KRAS variants from multiple cancer types
A high-throughput screen of multi-cell type tumor spheroids was designed to identify active combinations of targeted small molecules and KRAS pathway inhibitors. Complex spheroids include a stromal component modeled by human endothelial cells (HUVEC) and fibroblasts modeled by human mesenchymal stem cells (MSCs). The concentration ranges selected for each drug and investigational agent were based upon clinically achievable concentrations if the clinical Cmax of the agent was known.
Compounds. The drugs and investigational agents: BI-3406 (NSC825286), BAY-293 (NSC824723), batoprotafib (TNO155; NSC825523), sotorasib (AMG 510; NSC818433), MRTX1257 (NSC819558), elimusertib (BAY 1895344; NSC800525), molibresib (GSK525762; NSC774829), temuterkib (LY3214996; NSC803410), venetoclax (NSC766270), alisertib (NSC759677), olaparib (NSC753686), talazoparib (NSC767125), erdafitinib (NSC781556), ipatasertib (NSC767898), cabozantinib (NSC761068), nintedanib (NSC756659), abemaciclib (NSC768073), docetaxel (NSC628503), trametinib (NSC758246), and sapanisertib (NSC764658) were obtained from the National Cancer Institute (NCI) Developmental Therapeutics Program Chemical Repository. The FDA-approved anticancer drug set is available from the Developmental Therapeutics Program. […] The stock solutions were prepared in dimethyl sulfoxide (DMSO, Sigma-Aldrich, St. Louis, MO, cat. D2650) at 800-fold the tested concentration and stored at -70 degrees C prior to their use. All drugs and investigational agents were tested over a range starting from a high concentration at or near the clinical Cmax and decreasing in half-log increments. If the clinical Cmax for an agent had not been determined, the highest concentration tested was 10 microM.
Cell Culture. All cells were maintained in an incubator at 37 degrees C and 5% CO2 with 95% humidity. The PDC lines were cultured according to standard operating procedures established by the NCI PDMR (https://pdmr.cancer.gov/sops/default.htm). Briefly, all PDCs were thawed and cultured in Matrigel-coated flasks prepared with a working solution of 1X Ham's F-12 nutrient mix, without supplementation (Invitrogen, Waltham, MA, cat. 11765054), 100 U/mL penicillin-streptomycin (Invitrogen, cat. 15140122), and 2.5% Matrigel (Corning Inc., Corning, NY, cat. 354248) for the first three passages. All PDCs were cultured in complete DMEM/F-12 media containing advanced DMEM/F-12 (Invitrogen, cat. 12634028), 4.9% defined fetal bovine serum, heat inactivated (HyClone Laboratories Inc., Logan, UT, cat. SH30070.03HI), 389 ng/mL hydrocortisone (Sigma-Aldrich, cat. H4001), 9.7 ng/mL human EGF recombinant protein (Invitrogen, cat. PHG0313), 23.4 microg/mL adenine (Sigma-Aldrich, cat. A2786), 97.3 U/mL penicillin-streptomycin (Invitrogen, cat. 15140122), 1.9 mM L-glutamine (Invitrogen, cat. 25030081), and 9.7 microM Y-27632 dihydrochloride (Tocris Bioscience, Bristol, United Kingdom, cat. 1254). The PDCs were cultured in complete DMEM/F12 media without 9.7 microM Y-27632 dihydrochloride for at least two passages prior to the screen. The established cell line HOP-62 was cultured in RPMI 1640 medium, HEPES (Invitrogen, cat. 22400105) with 10% defined fetal bovine serum (HyClone Laboratories Inc., cat. SH30070.03) and 2 mM L-glutamine (Invitrogen, cat. 25030081). The pooled donor HUVEC were cultured in endothelial cell growth medium 2 (PromoCell, Heidelberg, Germany, cat. C-22011) and the hMSC were cultured in mesenchymal stem cell growth medium 2 (PromoCell, cat. C-28009). For all experiments, HUVEC and hMSC were used at passages </=5, while the malignant cell lines were used at passages </=15. […]
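Note: cells exposed to agents for seven days before viability read.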
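Throughout, for viability, T/C: 100% = DMSO vehicle control wells and lower values mean fewer viable cells.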

Row | Structure (SMILES) | viability, T/C
1 | CN(C)C/C=C/C(=O)Nc1cc2c(Nc3ccc(F)c(Cl)c3)ncnc2cc1O[C@H]1CCOC1 | 98.5% [middle of 5 runs]

Same assay, conditions: compound 0.001 µM; stronger effect = lower value

Row | Structure (SMILES) | viability, T/C
2 | CN(C)C/C=C/C(=O)Nc1cc2c(Nc3ccc(F)c(Cl)c3)ncnc2cc1O[C@H]1CCOC1 | 92.7% [middle of 5 runs]

Same assay, conditions: compound 0.00316 µM; stronger effect = lower value

Row | Structure (SMILES) | viability, T/C
3 | CN(C)C/C=C/C(=O)Nc1cc2c(Nc3ccc(F)c(Cl)c3)ncnc2cc1O[C@H]1CCOC1 | 90.8% [middle of 5 runs]

Same assay, conditions: compound 0.01 µM; stronger effect = lower value

Row | Structure (SMILES) | viability, T/C
4 | CN(C)C/C=C/C(=O)Nc1cc2c(Nc3ccc(F)c(Cl)c3)ncnc2cc1O[C@H]1CCOC1 | 95.8% [middle of 5 runs]

Same assay, conditions: compound 0.0316 µM; stronger effect = lower value

Row | Structure (SMILES) | viability, T/C
5 | CN(C)C/C=C/C(=O)Nc1cc2c(Nc3ccc(F)c(Cl)c3)ncnc2cc1O[C@H]1CCOC1 | 97.7% [middle of 5 runs]

Same assay, conditions: compound 0.1 µM; stronger effect = lower value

Row | Structure (SMILES) | viability, T/C
6 | COc1cc(Nc2ncc3c(n2)-c2ccc(Cl)cc2C(c2c(F)cccc2OC)=NC3)ccc1C(=O)O | 99.8% [middle of 5 runs]
7 | CN(C)C/C=C/C(=O)Nc1cc2c(Nc3ccc(F)c(Cl)c3)ncnc2cc1O[C@H]1CCOC1 | 90% [middle of 5 runs]

Same assay, conditions: compound 0.316 µM; stronger effect = lower value

Row | Structure (SMILES) | viability, T/C
8 | COc1cc(Nc2ncc3c(n2)-c2ccc(Cl)cc2C(c2c(F)cccc2OC)=NC3)ccc1C(=O)O | 93.1% [middle of 5 runs]

Same assay, conditions: compound 1 µM; stronger effect = lower value

Row | Structure (SMILES) | viability, T/C
9 | COc1cc(Nc2ncc3c(n2)-c2ccc(Cl)cc2C(c2c(F)cccc2OC)=NC3)ccc1C(=O)O | 87.7% [middle of 5 runs]

Same assay, conditions: compound 3.16 µM; stronger effect = lower value

Row | Structure (SMILES) | viability, T/C
10 | COc1cc(Nc2ncc3c(n2)-c2ccc(Cl)cc2C(c2c(F)cccc2OC)=NC3)ccc1C(=O)O | 95.5% [middle of 5 runs]

Same assay, conditions: compound alone; run of 07/26/2021

Row | Structure (SMILES) | IC50
11 | COc1cc2nc(C)nc(NC(C)c3cc(N)cc(C(F)(F)F)c3)c2cc1OC1CCOC1 (stereo not drawn) | 8.44 µM [middle of 6 runs]

Same assay, conditions: curve of compound

Row | Structure (SMILES) | IC50 [µM]
12 | COc1cc(Nc2ncc3c(n2)-c2ccc(Cl)cc2C(c2c(F)cccc2OC)=NC3)ccc1C(=O)O | > 10
13 | CN(C)C/C=C/C(=O)Nc1cc2c(Nc3ccc(F)c(Cl)c3)ncnc2cc1O[C@H]1CCOC1 | > 0.1

Same assay, conditions: curve of first compound; second compound 0.1 µM

Row | Structure (SMILES) | IC50 [µM]
14 | COC(=O)c1ccc2c(C(=Nc3ccc(N(C)C(=O)CN4CCN(C)CC4)cc3)c3ccccc3)c(O)[nH]c2c1 + CC1OCC2(CCN(c3cnc(Sc4ccnc(N)c4Cl)c(N)n3)CC2)C1N | > 10
15 | CCNC(=O)CC1N=C(c2ccc(Cl)cc2)c2cc(OC)ccc2-n2c(C)nnc21 (stereo not drawn) + CC1OCC2(CCN(c3cnc(Sc4ccnc(N)c4Cl)c(N)n3)CC2)C1N | > 10
16 | COc1cc2nccc(Oc3ccc(NC(=O)C4(C(=O)Nc5ccc(F)cc5)CC4)cc3)c2cc1OC + CNCc1ccccc1-c1csc(C(C)Nc2nc(C)nc3cc(OC)c(OC)cc23)c1 | > 10
17 | Cn1nccc1Nc1nccc(-c2cc3c(s2)C(C)(C)N(CCN2CCOCC2)C3=O)n1 + C=CC(=O)N1CCN(c2nc(=O)n(-c3c(C)ccnc3C(C)C)c3nc(-c4c(O)cccc4F)c(F)cc23)C(C)C1 | > 10

Same assay, conditions: curve of first compound; second compound 0.316 µM

Row | Structure (SMILES) | IC50 [µM]
18 | COC(=O)c1ccc2c(C(=Nc3ccc(N(C)C(=O)CN4CCN(C)CC4)cc3)c3ccccc3)c(O)[nH]c2c1 + CC1OCC2(CCN(c3cnc(Sc4ccnc(N)c4Cl)c(N)n3)CC2)C1N | > 10
19 | CCNC(=O)CC1N=C(c2ccc(Cl)cc2)c2cc(OC)ccc2-n2c(C)nnc21 (stereo not drawn) + CC1OCC2(CCN(c3cnc(Sc4ccnc(N)c4Cl)c(N)n3)CC2)C1N | 7.12
20 | COc1cc2nccc(Oc3ccc(NC(=O)C4(C(=O)Nc5ccc(F)cc5)CC4)cc3)c2cc1OC + CNCc1ccccc1-c1csc(C(C)Nc2nc(C)nc3cc(OC)c(OC)cc23)c1 | > 10
21 | Cn1nccc1Nc1nccc(-c2cc3c(s2)C(C)(C)N(CCN2CCOCC2)C3=O)n1 + C=CC(=O)N1CCN(c2nc(=O)n(-c3c(C)ccnc3C(C)C)c3nc(-c4c(O)cccc4F)c(F)cc23)C(C)C1 | > 10

Same assay, conditions: curve of first compound; second compound 1 µM

Row | Structure (SMILES) | IC50 [µM]
22 | COC(=O)c1ccc2c(C(=Nc3ccc(N(C)C(=O)CN4CCN(C)CC4)cc3)c3ccccc3)c(O)[nH]c2c1 + CC1OCC2(CCN(c3cnc(Sc4ccnc(N)c4Cl)c(N)n3)CC2)C1N | 1.18
23 | CCNC(=O)CC1N=C(c2ccc(Cl)cc2)c2cc(OC)ccc2-n2c(C)nnc21 (stereo not drawn) + CC1OCC2(CCN(c3cnc(Sc4ccnc(N)c4Cl)c(N)n3)CC2)C1N | 3.16
24 | COc1cc2nccc(Oc3ccc(NC(=O)C4(C(=O)Nc5ccc(F)cc5)CC4)cc3)c2cc1OC + CNCc1ccccc1-c1csc(C(C)Nc2nc(C)nc3cc(OC)c(OC)cc23)c1 | 0.595
25 | Cn1nccc1Nc1nccc(-c2cc3c(s2)C(C)(C)N(CCN2CCOCC2)C3=O)n1 + C=CC(=O)N1CCN(c2nc(=O)n(-c3c(C)ccnc3C(C)C)c3nc(-c4c(O)cccc4F)c(F)cc23)C(C)C1 | > 10

Same assay, conditions: curve of first compound; second compound 3.16 µM

Row | Structure (SMILES) | IC50 [µM]
26 | COC(=O)c1ccc2c(C(=Nc3ccc(N(C)C(=O)CN4CCN(C)CC4)cc3)c3ccccc3)c(O)[nH]c2c1 + CC1OCC2(CCN(c3cnc(Sc4ccnc(N)c4Cl)c(N)n3)CC2)C1N | 0.0332
27 | CCNC(=O)CC1N=C(c2ccc(Cl)cc2)c2cc(OC)ccc2-n2c(C)nnc21 (stereo not drawn) + CC1OCC2(CCN(c3cnc(Sc4ccnc(N)c4Cl)c(N)n3)CC2)C1N | 0.392
28 | COc1cc2nccc(Oc3ccc(NC(=O)C4(C(=O)Nc5ccc(F)cc5)CC4)cc3)c2cc1OC + CNCc1ccccc1-c1csc(C(C)Nc2nc(C)nc3cc(OC)c(OC)cc23)c1 | < 0.0316
29 | Cn1nccc1Nc1nccc(-c2cc3c(s2)C(C)(C)N(CCN2CCOCC2)C3=O)n1 + C=CC(=O)N1CCN(c2nc(=O)n(-c3c(C)ccnc3C(C)C)c3nc(-c4c(O)cccc4F)c(F)cc23)C(C)C1 | > 10

Same assay, conditions: curve of first compound; second compound 10 µM

Row | Structure (SMILES) | IC50 [µM]
30 | COC(=O)c1ccc2c(C(=Nc3ccc(N(C)C(=O)CN4CCN(C)CC4)cc3)c3ccccc3)c(O)[nH]c2c1 + CC1OCC2(CCN(c3cnc(Sc4ccnc(N)c4Cl)c(N)n3)CC2)C1N | < 0.0316
31 | CCNC(=O)CC1N=C(c2ccc(Cl)cc2)c2cc(OC)ccc2-n2c(C)nnc21 (stereo not drawn) + CC1OCC2(CCN(c3cnc(Sc4ccnc(N)c4Cl)c(N)n3)CC2)C1N | 0.53
32 | COc1cc2nccc(Oc3ccc(NC(=O)C4(C(=O)Nc5ccc(F)cc5)CC4)cc3)c2cc1OC + CNCc1ccccc1-c1csc(C(C)Nc2nc(C)nc3cc(OC)c(OC)cc23)c1 | < 0.0316
33 | Cn1nccc1Nc1nccc(-c2cc3c(s2)C(C)(C)N(CCN2CCOCC2)C3=O)n1 + C=CC(=O)N1CCN(c2nc(=O)n(-c3c(C)ccnc3C(C)C)c3nc(-c4c(O)cccc4F)c(F)cc23)C(C)C1 | > 10

Same assay, conditions: second compound 0.1 µM; first compound 0.0316 µM; stronger effect = lower value

Row | Structure (SMILES) | viability, T/C [%]
34 | COC(=O)c1ccc2c(C(=Nc3ccc(N(C)C(=O)CN4CCN(C)CC4)cc3)c3ccccc3)c(O)[nH]c2c1 + CC1OCC2(CCN(c3cnc(Sc4ccnc(N)c4Cl)c(N)n3)CC2)C1N | 87.3
35 | CCNC(=O)CC1N=C(c2ccc(Cl)cc2)c2cc(OC)ccc2-n2c(C)nnc21 (stereo not drawn) + CC1OCC2(CCN(c3cnc(Sc4ccnc(N)c4Cl)c(N)n3)CC2)C1N | 94.5
36 | COc1cc2nccc(Oc3ccc(NC(=O)C4(C(=O)Nc5ccc(F)cc5)CC4)cc3)c2cc1OC + CNCc1ccccc1-c1csc(C(C)Nc2nc(C)nc3cc(OC)c(OC)cc23)c1 | 82.3
37 | Cn1nccc1Nc1nccc(-c2cc3c(s2)C(C)(C)N(CCN2CCOCC2)C3=O)n1 + C=CC(=O)N1CCN(c2nc(=O)n(-c3c(C)ccnc3C(C)C)c3nc(-c4c(O)cccc4F)c(F)cc23)C(C)C1 | 106

Same assay, conditions: second compound 0.1 µM; first compound 0.1 µM; stronger effect = lower value

Row | Structure (SMILES) | viability, T/C [%]
38 | COC(=O)c1ccc2c(C(=Nc3ccc(N(C)C(=O)CN4CCN(C)CC4)cc3)c3ccccc3)c(O)[nH]c2c1 + CC1OCC2(CCN(c3cnc(Sc4ccnc(N)c4Cl)c(N)n3)CC2)C1N | 73.7

— PubChem BioAssay AID1963873 (Molecular Pharmacology Branch, DTP, NCI, 2024)
